According to US10703765B2 (priority 2014, dated 2020):
Structures can show the parent of a compound that is named as a salt. Where two headings read alike, the source gives them in different places.

Molecular target: human σ1 receptor (Homo sapiens, UniProt Q99720)
Experiment: biochemical
Type: binding
Set-up: μ and σ1 dual binding: key to the marks not given beside the values
[1] = read-out: μ and σ1 dual binding

Chain of human σ1 receptor (Q99720 whole entry): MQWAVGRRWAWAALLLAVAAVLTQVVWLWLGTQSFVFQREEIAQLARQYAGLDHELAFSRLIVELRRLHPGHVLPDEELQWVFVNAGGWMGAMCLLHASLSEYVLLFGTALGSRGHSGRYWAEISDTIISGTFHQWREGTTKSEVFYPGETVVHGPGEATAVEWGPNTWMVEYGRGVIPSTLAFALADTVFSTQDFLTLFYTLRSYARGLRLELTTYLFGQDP

| Compound | Ki [1] | other results |
| --- | --- | --- |
| Cc1cc(C)n(CCN2CCC3(CC2)CN(c2ccccc2)C(=O)C(C)O3)n1.Cl (stereo not shown) [Example 77, 9-(2-(3,5-dimethyl-1H-pyrazol-1-yl)ethyl)-2-methyl-4-phenyl-1-oxa-4,9-diazaspiro[5.5]undecan-3-one hydrochloride] | – | μ and σ1 dual binding: ++ |
| CC1OC2(CCN(CC(=O)N3CCOCC3)CC2)CN(c2ccccc2)C1=O (stereo not shown) [Example 78, 2-methyl-9-(2-morpholino-2-oxoethyl)-4-phenyl-1-oxa-4,9-diazaspiro[5.5]undecan-3-one hydrochloride] | > 500 nM | – |
| COc1ccccc1CCN1CCC2(CC1)CN(Cc1ccccn1)C(=O)CO2 [Example 79, 9-(2-methoxyphenethyl)-4-(pyridin-2-ylmethyl)-1-oxa-4,9-diazaspiro[5.5]undecan-3-one] | < 500 nM | – |
| O=C1C(=CC2CCOCC2)OC2(CCN(CCc3ccccc3)CC2)CN1c1ccccc1F [Example 80, 4-(2-fluorophenyl)-9-phenethyl-2-((tetrahydro-2H-pyran-4-yl)methylene)-1-oxa-4,9-diazaspiro[5.5]undecan-3-one] | – | Ki: < 500 nM |
| CC(C)CCN1CCC2(CC1)CN(c1ccccc1F)C(=O)C(C)O2.Cl (stereo not shown) [Example 81, 4-(2-fluorophenyl)-9-isopentyl-2-methyl-1-oxa-4,9-diazaspiro[5.5]undecan-3-one hydrochloride] | – | μ and σ1 dual binding: ++ |
| CC1OC2(CCN(CC3CC3)CC2)CN(c2ccccc2F)C1=O (stereo not shown) [Example 82, 9-(cyclopropylmethyl)-4-(2-fluorophenyl)-2-methyl-1-oxa-4,9-diazaspiro[5.5]undecan-3-one hydrochloride] | > 500 nM | – |
| COc1cccc(CCN2CCC3(CC2)CN(c2ccccc2F)C(=O)C(C)O3)c1 (stereo not shown) [Example 83, 4-(2-fluorophenyl)-9-(3-methoxyphenethyl)-2-methyl-1-oxa-4,9-diazaspiro[5.5]undecan-3-one hydrochloride] | – | Ki: < 100 nM |
| O=C1COC2(CCN(CCc3ccccn3)CC2)CN1Cc1ccccn1 [Example 84, 9-(2-(pyridin-2-yl)ethyl)-4-(pyridin-2-ylmethyl)-1-oxa-4,9-diazaspiro[5.5]undecan-3-one] | – | μ and σ1 dual binding (combined class from Ki-σ1 (human σ1 receptor, A1) and Ki-μ (human μ-opioid receptor, A2) radioligand binding): ++ |
| CC(C)=C1OC2(CCN(CCc3ccccc3)CC2)CN(c2ccccc2F)C1=O [Example 85, 4-(2-fluorophenyl)-9-phenethyl-2-(propan-2-ylidene)-1-oxa-4,9-diazaspiro[5.5]undecan-3-one] | > 500 nM | – |
| O=C1COC2(CCN(CCc3ccccc3)CC2)CN1Cc1ccccn1 [Example 86, 9-phenethyl-4-(pyridin-2-ylmethyl)-1-oxa-4,9-diazaspiro[5.5]undecan-3-one hydrochloride] | < 100 nM | – |
| COc1ccccc1CCN1CCC2(CC1)CN(Cc1ccccc1)CCO2 [Example 87, 4-benzyl-9-(2-methoxyphenethyl)-1-oxa-4,9-diazaspiro[5.5]undecane dihydrochloride] | > 500 nM | – |
| CC1OC2(CCN(CCc3ccccc3)CC2)CN(c2cscn2)C1=O (stereo not shown) [Example 88, 2-methyl-9-phenethyl-4-(thiazol-4-yl)-1-oxa-4,9-diazaspiro[5.5]undecan-3-one hydrochloride] | – | Ki: < 500 nM |
| CC1OC2(CCN(CCc3cccc(F)n3)CC2)CN(c2ccccc2F)C1=O (stereo not shown) [Example 89, 4-(2-fluorophenyl)-9-(2-(6-fluoropyridin-2-yl)ethyl)-2-methyl-1-oxa-4,9-diazaspiro[5.5]undecan-3-one hydrochloride] | – | Ki: < 500 nM |
| O=C1N(c2ccccc2)CC2(CCN(CCc3ccccn3)CC2)OC12CC2 [Example 90, 12-phenyl-8-[2-(pyridin-2-yl)ethyl]-4-oxa-8,12-diazaspiro[2.1.5.3]tridecan-13-one] | < 100 nM | – |
| CC1OC2(CCN(CCc3ccc(C(F)(F)F)nc3)CC2)CN(c2ccccc2F)C1=O (stereo not shown) [Example 91, 4-(2-fluorophenyl)-2-methyl-9-(2-(6-(trifluoromethyl)pyridin-3-yl)ethyl)-1-oxa-4,9-diazaspiro[5.5]undecan-3-one dihydrochloride] | < 500 nM | – |
| O=C1N(c2ccccc2)CC2(CCN(CCc3cccc([N+](=O)[O-])c3)CC2)OC12CC2 [Example 92, 8-(3-nitrophenethyl)-12-phenyl-4-oxa-8,12-diazaspiro[2.1.5.3]tridecan-13-one] | > 500 nM | – |
| CNS(=O)(=O)c1cccc(CCN2CCC3(CC2)CN(c2ccccc2)C(=O)C(C)O3)c1 (stereo not shown) [Example 93, N-methyl-3-(2-(2-methyl-3-oxo-4-phenyl-1-oxa-4,9-diazaspiro[5.5]undecan-9-yl)ethyl)benzenesulfonamide] | – | Ki: < 500 nM |
| CC1OC2(CCN(CCc3ccc(F)cn3)CC2)CN(c2ccccc2)C1=O (stereo not shown) [Example 94, 9-(2-(5-fluoropyridin-2-yl)ethyl)-2-methyl-4-phenyl-1-oxa-4,9-diazaspiro[5.5]undecan-3-one hydrochloride] | – | Ki: < 500 nM |
| CC1OC2(CCN(CCc3nccs3)CC2)CN(c2ccccc2)C1=O (stereo not shown) [Example 95, 2-methyl-4-phenyl-9-(2-(thiazol-2-yl)ethyl)-1-oxa-4,9-diazaspiro[5.5]undecan-3-one hydrochloride] | – | Ki: < 500 nM |

| Compound | Ki [1] | other results |
| --- | --- | --- |
| CC1OC2(CCN(CCc3ncccc3F)CC2)CN(c2ccccc2)C1=O (stereo not shown) [Example 96, 9-(2-(3-fluoropyridin-2-yl)ethyl)-2-methyl-4-phenyl-1-oxa-4,9-diazaspiro[5.5]undecan-3-one hydrochloride] | – | Ki: < 500 nM |
| O=C(CN1CCC2(CC1)CN(c1ccccc1)C(=O)C1(CC1)O2)c1ccccc1 [Example 97, 8-(2-oxo-2-phenylethyl)-12-phenyl-4-oxa-8,12-diazadispiro[2.1.5.3]tridecan-13-one] | > 500 nM | – |
| O=C1COC2(CCN(CCc3ccccn3)CC2)CN1Cc1ccc(C(F)(F)F)cn1 [Example 98, 9-(2-(pyridin-2-yl)ethyl)-4-((5-(trifluoromethyl)pyridin-2-yl)methyl)-1-oxa-4,9-diazaspiro[5.5]undecan-3-one hydrochloride] | < 500 nM | – |
| O=C(CN1CCC2(CC1)CN(Cc1ccc(C(F)(F)F)cn1)C(=O)CO2)c1ccccc1 [Example 99, 9-(2-oxo-2-phenylethyl)-4-((5-(trifluoromethyl)pyridin-2-yl)methyl)-1-oxa-4,9-diazaspiro[5.5]undecan-3-one] | > 500 nM | – |
| CC1OC2(CCN(CCC(=O)N(C)c3ccccc3)CC2)CN(c2ccccc2)C1=O (stereo not shown) [Example 100, N-methyl-3-(2-methyl-3-oxo-4-phenyl-1-oxa-4,9-diazaspiro[5.5]undecan-9-yl)-N-phenylpropanamide hydrochloride] | < 500 nM | – |
| CC1OC2(CCN(CCc3ccccn3)CC2)CN(c2cnccc2C(F)(F)F)C1=O.Cl (stereo not shown) [Example 101, 2-methyl-9-(2-(pyridin-2-yl)ethyl)-4-(4-(trifluoromethyl)pyridin-3-yl)-1-oxa-4,9-diazaspiro[5.5]undecan-3-one hydrochloride] | – | μ and σ1 dual binding: ++ |
| COc1cccc(CCN2CCC3(CC2)CN(c2ccccc2)C(=O)C(C)O3)n1 (stereo not shown) [Example 102, 9-(2-(6-methoxypyridin-2-yl)ethyl)-2-methyl-4-phenyl-1-oxa-4,9-diazaspiro[5.5]undecan-3-one hydrochloride] | – | Ki: < 500 nM |
| O=C1COC2(CCN(CCc3cccc([N+](=O)[O-])c3)CC2)CN1Cc1ccc(C(F)(F)F)cn1 [Example 103, 9-(3-nitrophenethyl)-4-((5-(trifluoromethyl)pyridin-2-yl)methyl)-1-oxa-4,9-diazaspiro[5.5]undecan-3-one] | > 500 nM | – |
| Nc1cccc(CN2CC3(CCN(CCc4ccccc4)CC3)OCC2=O)n1 [Example 104, 4-((6-aminopyridin-2-yl)methyl)-9-phenethyl-1-oxa-4,9-diazaspiro[5.5]undecan-3-one] | > 500 nM | – |
| O=C1COC2(CCN(CCc3ccccc3)CC2)CN1Cc1ccc(Cl)cn1 [Example 105, 4-((5-chloropyridin-2-yl)methyl)-9-phenethyl-1-oxa-4,9-diazaspiro[5.5]undecan-3-one hydrochloride] | < 100 nM | – |
| CC(C)(C)OC(=O)Nc1nc(CCN2CCC3(CC2)CN(Cc2ccc(C(F)(F)F)cn2)C(=O)CO3)cs1 [Example 106, tert-butyl (4-(2-(3-oxo-4-((5-(trifluoromethyl)pyridin-2-yl)methyl)-1-oxa-4,9-diazaspiro[5.5]undecan-9-yl)ethyl)thiazol-2-yl)carbamate] | > 500 nM | – |
| CNS(=O)(=O)c1ccc(CCN2CCC3(CC2)CN(c2ccccc2)C(=O)C(C)O3)cc1 (stereo not shown) [Example 107, N-methyl-4-(2-(2-methyl-3-oxo-4-phenyl-1-oxa-4,9-diazaspiro[5.5]undecan-9-yl)ethyl)benzenesulfonamide] | > 500 nM | – |
| CC1OC2(CCN(CCc3ccc(S(N)(=O)=O)cc3)CC2)CN(c2ccccc2)C1=O (stereo not shown) [Example 108, 4-(2-(2-methyl-3-oxo-4-phenyl-1-oxa-4,9-diazaspiro[5.5]undecan-9-yl)ethyl)benzenesulfonamide] | > 500 nM | – |
| COc1ccc(CN2CC3(CCN(CCc4ccccc4)CC3)OC3(CC3)C2=O)cc1 [Example 109, 12-(4-methoxybenzyl)-8-phenethyl-4-oxa-8,12-diazadispiro[2.1.5.3]tridecan-13-one hydrochloride] | < 100 nM | – |
| CC1OC2(CCN(CCn3ccc([N+](=O)[O-])n3)CC2)CN(c2ccccc2)C1=O (stereo not shown) [Example 110, 2-methyl-9-(2-(3-nitro-1H-pyrazol-1-yl)ethyl)-4-phenyl-1-oxa-4,9-diazaspiro[5.5]undecan-3-one] | > 500 nM | – |
| COc1ccc(CCN2CCC3(CC2)CN(c2ccccc2)C(=O)C(C)O3)cn1 (stereo not shown) [Example 111, 9-(2-(6-methoxypyridin-3-yl)ethyl)-2-methyl-4-phenyl-1-oxa-4,9-diazaspiro[5.5]undecan-3-one] | – | μ and σ1 dual binding: ++ |
| CC1OC2(CCN(CCc3cncc(C(F)(F)F)c3)CC2)CN(c2ccccc2)C1=O (stereo not shown) [Example 112, 2-methyl-4-phenyl-9-(2-(5-(trifluoromethyl)pyridin-3-yl)ethyl)-1-oxa-4,9-diazaspiro[5.5]undecan-3-one hydrochloride] | – | Ki: < 500 nM |
| CC1OC2(CCN(CCc3ccc(Cl)nc3)CC2)CN(c2ccccc2)C1=O (stereo not shown) [Example 113, 9-(2-(6-chloropyridin-3-yl)ethyl)-2-methyl-4-phenyl-1-oxa-4,9-diazaspiro[5.5]undecan-3-one] | > 500 nM | – |
